Where two headings read alike, the source gives them in different places.
Key:
Tumour necrosis factor-α = Tumour necrosis factor-α secretion from PMA/ionomycin-stimulated PBMCs; assay type: cell-based; conditions: stimulated human PBMCs, result in words
Protocol: (§1) The compounds of Formula (I) may be investigated for inhibition of pro-inflammatory cytokines Interleukin (IL)-[…], 6,8 and 17A, Interferon (IFN)-gamma and Tumour necrosis factor (TNF)-α in peripheral blood mononuclear cells (PBMCs) isolated from fresh human buffy coats by centrifugation on Lymphoprep™ (Stemcell Technologies). All human cells are grown in cell culture medium RPMI-1640 supplemented with 1% penicillin/streptomycin and 5% heat inactivated fetal bovine serum.
(§2) PBMCs stimulated with PMA/ionomycin are incubated for 24 hours containing the compounds under investigation, reconstituted in DMSO. The secreted levels of Interferon-gamma and Tumour necrosis factor-α are measured in the cell culture supernatant using a Human Quantikine ELISA Kit and the cell viability is quantified using Trypan blue.

Interleukin-17A = Interleukin-17A secretion from PMA/ionomycin-stimulated PBMCs; assay type: cell-based, human; conditions: for inhibition of IL-17 / IL-17A: stimulated human PBMCs, result in words
Protocol: as §1
as §2, with “Interleukin-17A” for “Interferon-gamma and Tumour necrosis factor-α”, “cytometric bead array” for “Human Quantikine ELISA Kit”
(§3) 3,5-Diamino-6-(diphenylmethyl)-1,2,4-triazine was also investigated for […] inhibition in a human PBMC model: […]

Interleukin-6 = Interleukin-6 secretion from LPS-stimulated PBMCs; assay type: cell-based; conditions: stimulated human PBMCs, result in words
Protocol: as §1
(§4) PBMCs stimulated with LPS (Salmonella enterica serotype typhimurium) are incubated for 24 hours containing the compounds under investigation, reconstituted in dimethyl sulfoxide (DMSO). The secreted levels of Interleukin-1β and Interleukin-6 are measured in the cell culture supernatant using a cytometric bead array and the cell viability is quantified using Trypan blue.

Interferon-gamma = Interferon-gamma secretion from PMA/ionomycin-stimulated PBMCs; assay type: cell-based; conditions: stimulated human PBMCs, result in words
Protocol: as §1, §2

Interleukin-1β = Interleukin-1β secretion from LPS-stimulated PBMCs; assay type: cell-based; conditions: stimulated human PBMCs, result in words
Protocol: as §1, §4

Interleukin-8 = Interleukin-8 secretion from PBMCs stimulated with TNF-α and IL-17A; assay type: cell-based; conditions: stimulated human PBMCs, result in words
Protocol: as §1
(§5) PBMCs stimulated with a mixture between TNF-α and IL-17A are incubated for 24 hours whilst containing the compounds under investigation, reconstituted in DMSO. The secreted levels of Interleukin-8 are measured in the cell culture supernatant using a cytometric bead array and the cell viability is quantified using Trypan blue.

[1] = PBMC viability in the IL-17A human PBMC model; assay type: cell-based; conditions: PBMCs stimulated with PMA/ionomycin; human PBMC model, maximum effect; read-out: Inhibition of PMBC viability, Max effect
Protocol: as §5, with “PMA/ionomycin” for “a mixture between TNF-α and IL-17A”, “hours” for “hours whilst”, “Interleukin-17A” for “Interleukin-8”
as §3

PBMC = PBMC viability in the IL-17A human PBMC model; assay type: cell-based; conditions: Homo sapiens, PBMC
Protocol: as §5, with “PMA/ionomycin” for “a mixture between TNF-α and IL-17A”, “hours” for “hours whilst”, “Interleukin-17A” for “Interleukin-8”
as §3

IL-2 = IL-2 release from stimulated CD4-positive T cells; assay type: cell-based, human
Protocol: (§6) The compounds may be investigated for inhibition of pro-inflammatory cytokines Interleukin-2, 4 and 13 in human CD4-positive T cells isolated from fresh isolated PBMCS using a CD4-positive T cell isolation kit.
(§7) CD4-positive T cells stimulated with beads coated with antibodies against CD2, CD3 and CD28 are incubated for 48 hours containing the compounds under investigation, reconstituted in DMSO. The secreted levels of Interleukin-2, 4 and 13 are measured in the cell culture supernatant using a cytometric bead array and the cell viability is measured using an MTT (3-(4,5-dimethylthiazol-2-yl)-2,5-diphenyltetrazolium bromide) assay.
(§8) Secreted IL-4 levels may be measured using electrochemiluminescence (MSD kits, Meso Scale Discovery), while secreted IL-2 levels may be measured using proximity homogenous time-resolved fluorescence (HTRF) and the amount of living cells may be measured by addition of resazurin (PrestoBlue®).

IL-4 = IL-4 release from stimulated CD4-positive T cells; assay type: cell-based, human
Protocol: as §6, §7, §8

T cell = T cell proliferation in the IL-2/IL-4 inhibition assays; assay type: cell-based, human
Protocol: as §6, §7, §8

## Nc1nnc(-c2sc(Cl)c(Cl)c2Cl)c(N)n1 [Compound 1, 3,5-diamino-6-[2-(3,4,5-trichlorothienyl)]-1,2,4-triazine]
Tumour necrosis factor-α
  inhibition of TNF-α: high inhibition
Interleukin-17A
  inhibition of IL-17 / IL-17A: moderate inhibition
Interleukin-6
  inhibition of IL-6: high inhibition
Interferon-gamma
  inhibition of IFN-γ: high inhibition
Interleukin-1β
  inhibition of IL-1β: high inhibition
Interleukin-8
  inhibition of IL-8: high inhibition

## Nc1nnc(C(c2ccccc2)c2ccccc2)c(N)n1 [Compound 2, 3,5-Diamino-6-(diphenylmethyl)-1,2,4-triazine]
[1]
  cytotoxicity at 24 h: 38%
PBMC; read-out: Inhibition of PMBC viability, Abs EC50
  EC50: > 10000 nM
PBMC; read-out: Inhibition of PMBC viability, Rel EC50
  EC50: 44000 nM
Tumour necrosis factor-α; at the top concentration
  inhibition of TNF-α: high inhibition
Interleukin-17A; human PBMC model, absolute EC50, read-out: Inhibition of IL-17A release, Abs EC50
  EC50: 317 nM
Interleukin-17A; human PBMC model, maximum effect, read-out: Inhibition of IL-17A release, Max effect
  Emax: 86%
Interleukin-17A; human PBMC model, relative EC50, read-out: Inhibition of IL-17A release, Rel EC50
  EC50: 261 nM
Interleukin-17A
  inhibition of IL-17 / IL-17A: high inhibition
IL-2; Homo sapiens, CD4 positive, absolute EC50, read-out: Inhibition of IL-2 release, Abs EC50
  EC50: 15 nM
IL-2; Homo sapiens, CD4 positive, maximum effect, read-out: Inhibition of IL-2 release, Max Effect
  Emax: 97%
IL-2; Homo sapiens, CD4 positive, relative EC50, read-out: Inhibition of IL-2 release, Rel EC50
  EC50: 28 nM
IL-2; result in words
  inhibition of IL-2: good level of inhibition
IL-4; Homo sapiens, CD4 positive, absolute EC50, read-out: Inhibition of IL-4 release, Abs EC50
  EC50: 61.3 nM
IL-4; Homo sapiens, CD4 positive, maximum effect, read-out: Inhibition of IL-4 release, Max Effect
  Emax: 99%
IL-4; Homo sapiens, CD4 positive, relative EC50, read-out: Inhibition of IL-4 release, Rel EC50
  EC50: 50.5 nM
IL-4; relative EC50, read-out: Inhibition of IL-4 release, Rel EC50
  EC50: 58.4 nM
IL-4; result in words
  inhibition of IL-4: good level of inhibition
T cell; Homo sapiens, T-cell, absolute EC50, read-out: Inhibition of T cell proliferation, Abs EC50
  EC50: > 10000 nM
T cell; Homo sapiens, T-cell, maximum effect, read-out: Inhibition of T cell proliferation, Max Effect
  Emax: 28%
T cell; Homo sapiens, T-cell, relative EC50, read-out: Inhibition of T cell proliferation, Rel EC50
  EC50: > 10000 nM
T cell; result in words
  inhibition of T cell proliferation: without significant inhibition
Interleukin-6
  inhibition of IL-6: moderate inhibition
Interferon-gamma
  inhibition of IFN-γ: high inhibition
Interleukin-1β
  inhibition of IL-1β: moderate inhibition
Interleukin-8
  inhibition of IL-8: high inhibition

Reference: patent US20230165869A1, “DIAZINE AND TRIAZINE COMPOUNDS TO TREAT CYTOKINE STORM SYNDROME” (UNIVERSITY OF GREENWICH, priority 2020, published 2023)
